Assay results: patent publication US7538135B2, “Benzenesulfonylamino compounds and pharmaceutical compositions containing these compounds” (Novartis AG, priority 2003, dated 2009)

Assays:
GST-hPPARα LBD = target: T1, GST-hPPARα LBD (Homo sapiens, UniProt Q07869); assay: PPARα receptor binding assay (CARLA, TR-FRET functional binding); type: biochemical; details: TR-FRET coactivator (SRC-1 peptide) recruitment, 3 hours at room temperature
T1 construct: made in house; host or cells: E. coli BL21(DE3)
T1 sequence (Q07869 167-468): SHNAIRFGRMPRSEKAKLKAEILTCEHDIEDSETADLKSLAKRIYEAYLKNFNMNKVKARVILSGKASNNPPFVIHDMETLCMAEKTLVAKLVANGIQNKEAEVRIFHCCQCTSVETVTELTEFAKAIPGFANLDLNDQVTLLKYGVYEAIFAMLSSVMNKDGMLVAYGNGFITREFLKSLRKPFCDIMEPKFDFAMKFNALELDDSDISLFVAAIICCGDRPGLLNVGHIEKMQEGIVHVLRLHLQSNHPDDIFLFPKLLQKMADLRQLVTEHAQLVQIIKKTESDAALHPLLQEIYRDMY
T1 sequence (Q15788 676-700 partner limits assumed): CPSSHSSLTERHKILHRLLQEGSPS
Method: (§1) The in vitro functional binding to the PPARα, PPARδ and PPARγ receptors is determined as follows:
(§2) The functional binding assays for the PPARα, PPARδ and PPARγ receptors are a variation of the coactivator-dependent receptor ligand assay (CARLA) (see Krey et al., “Fatty Acids, Eicosanoids, and Hypolipidemic Agents Identified as Ligands of Peroxisome Proliferator-Activated Receptors by Coactivator-Dependent Receptor Ligand Assay”, Molecular Endocrinology, Vol. 11, pp. 779-791 (1997)). The present CARLA assays use a TR-FRET detection method previously reviewed (see Hemmila, “LANCE: Homogeneous Assay Platform for HTS”, J. Biomol. Screening, Vol. 4, pp. 303-307 (1999); Mathis, “HTRF Technology”, J. Biomol. Screening, Vol. 4, pp. 309-313 (1999)). […] This brings the Eu-labeled anti-GST antibody and the strepavidin-labeled APC in close proximity, thereby facilitating fluorescence energy transfer. […] After mixing all components, the reaction mixture stands for 3 hours at room temperature before reading the TR-FRET (Time-Resolved Fluorescence Resonance Energy Transfer) signal on a Wallac Victor 2 plate reader (measuring the ratio of signals at […]). […]

GST-hPPARγ LBD = target: T2, GST-hPPARγ LBD (Homo sapiens, UniProt P37231); assay: PPARγ receptor binding assay (CARLA, TR-FRET functional binding); type: biochemical; details: TR-FRET coactivator (SRC-1 peptide) recruitment, 3 hours at room temperature
T2 construct: GST-hPPARγ LBD (amino acids 175-476); made in house; host or cells: E. coli BL21(DE3)
T2 sequence (P37231 175-476 isoform P37231-2): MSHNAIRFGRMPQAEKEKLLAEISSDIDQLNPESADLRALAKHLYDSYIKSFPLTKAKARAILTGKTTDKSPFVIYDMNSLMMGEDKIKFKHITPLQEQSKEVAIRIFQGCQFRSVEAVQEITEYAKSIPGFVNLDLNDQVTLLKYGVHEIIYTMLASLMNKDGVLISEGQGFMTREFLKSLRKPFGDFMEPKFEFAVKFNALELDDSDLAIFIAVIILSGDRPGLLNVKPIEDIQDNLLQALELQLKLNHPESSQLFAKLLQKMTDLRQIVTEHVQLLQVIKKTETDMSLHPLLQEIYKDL
T2 sequence (Q15788 676-700 partner limits assumed): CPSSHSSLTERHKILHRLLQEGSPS
Method: as §1, §2

EC50 (GST-hPPARα LBD): ~5 nM | EC50 (GST-hPPARγ LBD): ~3 nM
Compound: CCOC(=O)c1cn(CC)nc1NS(=O)(=O)c1ccc(OCc2nc(-c3ccc(C(F)(F)F)cc3)oc2C)cc1 [Example 1, 1-Ethyl-3-{4-[5-methyl-2-(4-trifluoromethyl-phenyl)oxazol-4-ylmethoxy]-benzene-sulfonylamino}-1H-pyrazole-4-carboxylic acid ethyl ester]
